Reference: PubChem BioAssay AID743464 (Broad Institute, 2014)
Calls of active or inactive are those of the source.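 The calls were made as follows: active = fitted curve of COX8b expression increase reaching level 40 at or below the top valid tested dose; inconclusive = flat fit between 30 and 70, or poor fit; inactive = the rest.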

Test system: not listed separately
Experiment: change in PGC-1a target gene COX8b expression, dose response, C2C12 myotubes, RT-qPCR, cherry-pick (AID 743464)
Conditions: C2C12 myotubes, COX8b mRNA qPCR (delta-delta-Ct); at 6.8 µM (top of the series)
With `N#Cc1cc(Oc2cccc3cccnc23)c(-n2nnc3ccccc32)cc1C#N` the COX8b expression increase was -21.9 unspecified (inactive).

Same assay, conditions: C2C12 myotubes, COX8b mRNA qPCR (delta-delta-Ct); at 19.5 µM (top of the series)
For `CC1=C(Cl)C2=NS(=O)(=O)CCN2C=C1Cl`, the COX8b expression increase was 6.22 unspecified (inactive).
With `Cn1nnnc1SCC(=O)NCc1cccc(C(=O)O)c1` the COX8b expression increase was -7.14 unspecified (inactive).
With `CC[C@H](C)[C@H](NC(=O)c1ccc(Cl)cc1)C(=O)OCC(=O)c1ccc2c(c1)NC(=O)CO2` the COX8b expression increase was -1.89 unspecified (inactive).
For `CCOc1cc(CNC2CCCC2)cc(Cl)c1OCc1ccc(F)cc1`, the COX8b expression increase was 0.737 unspecified (inactive).
In the case of `COCCSc1ccccc1C(=O)Nc1cc(C)on1`, the COX8b expression increase is reported as 3.36 unspecified (inactive).
For `CCN1CCN(Cc2ccc(NC(=O)c3ccc(C)c(NC(=O)c4c[nH]c5cc(C(F)(F)F)ccc5c4=O)c3)cc2C(F)(F)F)CC1`, the COX8b expression increase was 15.7 unspecified (inactive).
For `C[C@H]1CN([C@@H](C)CO)S(=O)(=O)c2ccc(-c3ccccc3)cc2O[C@@H]1CN(C)Cc1cccc(F)c1`, the COX8b expression increase was -3.3 unspecified (inactive).
In the case of `Cc1ccccc1-n1nnnc1Sc1nnnn1-c1ccccc1`, the COX8b expression increase is reported as 9.68 unspecified (inactive).
For `CS(=O)c1nc(-c2ccc(Br)cc2)cc(-c2ccccc2)c1C#N` (centres undefined), the COX8b expression increase was 6.29 unspecified (inactive).
For `C[C@H](CO)N1C[C@H](C)[C@@H](CN(C)C(=O)C2CCCCC2)Oc2cc(C#Cc3ccncc3)ccc2S1(=O)=O`, the COX8b expression increase was 9.62 unspecified (inactive).
With `O=c1[nH]c2ccccc2n1C1CCN(C(c2cc3ccccc3o2)c2nnnn2Cc2ccccc2)CC1` (centres undefined) the COX8b expression increase was 12.6 unspecified (inactive).
For `OC(c1cc(C(F)(F)F)nc2c(C(F)(F)F)cccc12)C1CCCCN1` (centres undefined), the COX8b expression increase was 1.68 unspecified (inactive).
In the case of `Cc1nc(Nc2ccc(S(N)(=O)=O)cc2)sc1C(=O)Nc1ccccc1`, the COX8b expression increase is reported as -1.19 unspecified (inactive).
For `O=c1cc(CSc2ccccn2)[nH]c(=O)[nH]1`, the COX8b expression increase was -6.81 unspecified (inactive).
With `CCN(CC(=O)NCc1ccc(Cl)cc1)C(=O)CSCC(=O)Nc1ccc(C)cc1` the COX8b expression increase was 0.86 unspecified (inactive).
With `Cc1nc2ccccn2c1C(=O)/C=C/c1ccc(F)cc1` the COX8b expression increase was -3.59 unspecified (inactive).
In the case of `COc1ccc(C(=O)Nc2cccc(NC(=O)c3ccc(OC)c(OC)c3)n2)cc1OC`, the COX8b expression increase is reported as 7.85 unspecified (inactive).
For `COc1ccccc1C#Cc1ccc([C@H]2[C@H](C#N)N(C(=O)C3CCCC3)[C@H]2CO)cc1`, the COX8b expression increase was 21.2 unspecified (inactive).
For `C#CCN(C[C@@H]1[C@@H](OC(=O)NCCCCCC)[C@@H](OC(=O)NCCCCCC)Cn2c(=O)ccc(=O)n21)S(=O)(=O)c1ccc(C)cc1`, the COX8b expression increase was 4.23 unspecified (inactive).
For `Cc1cc2c(c(/C=C/C(=O)c3ccccc3)c1)OC1(C=C2)Oc2ccccc2C(=O)N1C` (centres undefined), the COX8b expression increase was 21.7 unspecified (inactive).
For `C[C@H](CO)N1C[C@H](C)[C@@H](CN(C)Cc2cccnc2)Oc2cc(C#CC3CCCCC3)ccc2S1(=O)=O`, the COX8b expression increase was 0.89 unspecified (inactive).
In the case of `Cc1cc(C)cc(OC(=O)CS(=O)c2ccc(C(F)(F)F)cc2[N+](=O)[O-])c1` (centres undefined), the COX8b expression increase is reported as -6.23 unspecified (inactive).
With `Nc1ncnc(NCc2ccc(F)cc2)c1[N+](=O)[O-]` the COX8b expression increase was 1.72 unspecified (inactive).
With `CCN1CCN(Cc2ccc(NC(=O)c3cc(NC(=O)c4cncc(-c5ccc(C#N)cc5)c4)cc(OC)c3)cc2C(F)(F)F)CC1` the COX8b expression increase was -3 unspecified (inactive).
For `O=C(C[C@H]1CC[C@@H](NC(=O)c2ccccc2)[C@H](CO)O1)Nc1ccc(-c2ccccc2)cc1`, the COX8b expression increase was -12.4 unspecified (inactive).
In the case of `COC(=O)c1nn(-c2ccccc2)ccc1=O`, the COX8b expression increase is reported as 3.82 unspecified (inactive).
In the case of `Cc1ccc(-c2nc(NC(=O)c3nn(C)cc3[N+](=O)[O-])sc2C)cc1`, the COX8b expression increase is reported as 8.83 unspecified (inactive).

Test system: C2C12 myotubes, COX8b mRNA qPCR (delta-delta-Ct)
Experiment: as above
Conditions: not given
With `O=C(Nc1cccc(F)c1)N1CC(=O)N2[C@@H](CO)[C@@H](c3ccc(C#Cc4cccnc4)cc3)[C@@H]2C1` the AC40 was > 19.5 µM (inactive).
In the case of `O=C(Nc1ccc(N2CCN(Cc3ccccc3F)CC2)cc1)c1ccc([N+](=O)[O-])o1`, the AC40 is reported as 10.4 µM.
For `Cc1ccc(S(=O)(=O)N(C)C[C@@H]2Oc3cc(C#Cc4ccncc4)ccc3S(=O)(=O)N([C@@H](C)CO)C[C@H]2C)cc1`, the AC40 was > 19.5 µM (inactive).
For `Cc1ccc(S(=O)(=O)N(C)C[C@@H]2Oc3cc(C#Cc4ccncc4)ccc3S(=O)(=O)N([C@H](C)CO)C[C@H]2C)cc1`, the AC40 was > 19.5 µM (inactive).
In the case of `CCOC(=O)c1c2c(n(C)c1C)C(=O)C(=O)c1ccc(Br)cc1-2`, the AC40 is reported as 16.8 µM.
With `Cc1ccc(S(=O)(=O)N(C)C[C@H]2Oc3cc(C#Cc4ccncc4)ccc3S(=O)(=O)N([C@H](C)CO)C[C@H]2C)cc1` the AC40 was 19.3 µM.
`CCn1nc(/C=C/c2ccccc2)nc2c(=O)n(C)c(=O)nc1-2` gave an AC40 of 0.78 µM.
In the case of `O=C(Nc1ccc(C(F)(F)F)cc1)N1C[C@@H]2N[C@H](C1)C2c1ccc(-c2ccccc2)cc1` (some centres undefined), the AC40 is reported as > 19.5 µM (inactive).
In the case of `COc1ccccc1-c1ccc([C@@H]2[C@@H]3CN(S(=O)(=O)c4ccc(-c5ccccc5)cc4)C[C@H]2N3)cc1`, the AC40 is reported as > 19.5 µM (inactive).
In the case of `Cc1ccc(-c2ccc(C3[C@@H]4CN(C(=O)Nc5ccc(C(F)(F)F)cc5)C[C@H]3N4)cc2)cc1` (some centres undefined), the AC40 is reported as > 19.5 µM (inactive).
In the case of `N#Cc1ccc(-c2ccc(C3[C@@H]4CN(S(=O)(=O)c5ccc(F)cc5)C[C@H]3N4)cc2)cc1` (some centres undefined), the AC40 is reported as > 19.5 µM (inactive).
With `COc1ccccc1C#Cc1ccc2c(c1)O[C@@H](CN(C)Cc1cccnc1)[C@H](C)CN([C@H](C)CO)S2(=O)=O` the AC40 was > 19.5 µM (inactive).
With `Cc1ccc(Cn2ncc(Cl)c(Cl)c2=O)cc1` the AC40 was > 19.5 µM (inactive).
For `Cc1cccc(NC(=O)CNC(=O)Cn2ncc(Cl)c(Cl)c2=O)c1C`, the AC40 was > 19.5 µM (inactive).
`CCCN(CC)c1ncnc2[nH]ncc12` showed an AC40 of 17.5 µM.
In the case of `C=CS(=O)(=O)N(Cc1ccccc1Br)[C@H](CO)Cc1ccccc1`, the AC40 is reported as > 19.5 µM (inactive).
